# Reference: PubChem BioAssay (NCI)
#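 Results reflect a 48-hour exposure of cells in 96-well plates to compound at five concentrations. Abbreviation: GI50, concentration required for 50% inhibition of growth. At the TGI there is no net growth.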
# Key:
# Assay in all cases: NCI tumour cell line growth inhibition, 48 h
# [1] = test system: UO-31 renal
# [2] = test system: SN12C renal
# [3] = test system: MDA-MB-435
# [4] = test system: SK-MEL-28 melanoma
# [5] = test system: TK-10 renal
# [6] = test system: NCI-H460 lung
# [7] = test system: HCC-2998 colon
# [8] = test system: SR leukemia
# [9] = test system: A549 NSCLC
# [10] = test system: ACHN renal
# [11] = test system: HOP-62 NSCLC
# [12] = test system: COLO 205 colon
# [13] = test system: NCI-H226 lung
# [14] = test system: HS 578T breast
# [15] = test system: A498 renal
# [16] = test system: T-47D breast
# [17] = test system: HT29 colon
# [18] = test system: MOLT-4 leukemia
# [19] = test system: HCT-116 colon
# [20] = test system: RXF 393 renal
# [21] = test system: CCRF-CEM leukemia
# [22] = test system: U251 CNS
# [23] = test system: NCI/ADR-RES ovarian
# [24] = test system: UACC-62 melanoma
# [25] = test system: EKVX NSCLC
# [26] = test system: MCF7 breast
# [27] = test system: BT-549 breast
# [28] = test system: OVCAR-4 ovarian
# [29] = test system: NCI-H522 lung
# [30] = test system: SK-MEL-2 melanoma
# [31] = test system: M14 melanoma
# [32] = test system: UACC-257 melanoma
# [33] = test system: IGROV1 ovarian
# [34] = test system: LOX IMVI melanoma
# [35] = test system: PC-3 prostate
# [36] = test system: 786-0 renal
# [37] = test system: HL-60(TB) leukemia
# [38] = test system: RPMI-8226 leukemia
# [39] = test system: HOP-92 NSCLC
# [40] = test system: SK-MEL-5 melanoma
# [41] = test system: SK-OV-3 ovarian
# [42] = test system: HCT-15 colon
# [43] = test system: K-562 leukemia
# [44] = test system: SNB-19 CNS
# [45] = test system: SF-539 CNS
# [46] = test system: SW-620 colon
# [47] = test system: CAKI-1 renal
# [48] = test system: SF-295 CNS
# [49] = test system: OVCAR-5 ovarian
# [50] = test system: MDA-MB-231 breast
# [51] = test system: MALME-3M melanoma
# [52] = test system: SNB-75 CNS
# [53] = test system: NCI-H23 lung
# [54] = test system: OVCAR-8 ovarian
# [55] = test system: KM12 colon
# [56] = test system: SF-268 CNS
# [57] = test system: DU-145 prostate
# [58] = test system: OVCAR-3 ovarian
smiles,measurement,setting,value
CCN1CCC2(CC1)NC(=O)c1c(c3ccc(Cl)c(Cl)c3n1C)C2C#N (centres undefined),GI50,[1],1.84 µM
same,TGI,[1],5.03 µM
same,GI50,[2],4.1 µM
same,TGI,[2],16.3 µM
same,GI50,[3],1.93 µM
same,TGI,[3],3.77 µM
same,GI50,[4],1.65 µM
same,TGI,[4],3.07 µM
same,GI50,[5],1.8 µM
same,TGI,[5],5.38 µM
same,GI50,[6],2.34 µM
same,TGI,[6],6.45 µM
same,GI50,[7],1.73 µM
same,TGI,[7],3.26 µM
same,GI50,[8],1.76 µM
same,TGI,[8],5.69 µM
same,GI50,[9],3.13 µM
same,TGI,[9],13.5 µM
same,GI50,[10],2.92 µM
same,TGI,[10],12.8 µM
same,GI50,[11],1.61 µM
same,TGI,[11],3.13 µM
same,GI50,[12],1.86 µM
same,TGI,[12],4.11 µM
same,GI50,[13],5.67 µM
same,TGI,[13],23.7 µM
same,GI50,[14],1.81 µM
same,TGI,[14],5.57 µM
same,GI50,[15],1.34 µM
same,TGI,[15],3.32 µM
same,GI50,[16],3.09 µM
same,TGI,[16],13.7 µM
same,GI50,[17],1.92 µM
same,TGI,[17],4.11 µM
same,GI50,[18],2.43 µM
same,TGI,[18],8.66 µM
same,GI50,[19],2.49 µM
same,TGI,[19],4.29 µM
same,GI50,[20],1.24 µM
same,TGI,[20],4.13 µM
same,GI50,[21],3 µM
same,TGI,[21],13.1 µM
same,GI50,[22],2.83 µM
same,TGI,[22],12 µM
same,GI50,[23],3.6 µM
same,TGI,[23],13.6 µM
same,GI50,[24],1.77 µM
same,TGI,[24],3.32 µM
same,GI50,[25],3.4 µM
same,TGI,[25],17.8 µM
same,GI50,[26],1.56 µM
same,TGI,[26],3.28 µM
same,GI50,[27],3.61 µM
same,TGI,[27],15.2 µM
same,GI50,[28],3.83 µM
same,TGI,[28],15.1 µM
same,GI50,[29],5.81 µM
same,TGI,[29],21.7 µM
same,GI50,[30],2.02 µM
same,TGI,[30],4.42 µM
same,GI50,[31],1.62 µM
same,TGI,[31],3.1 µM
same,GI50,[32],1.84 µM
same,TGI,[32],3.96 µM
same,GI50,[33],3.11 µM
same,TGI,[33],8.97 µM
same,GI50,[34],1.65 µM
same,TGI,[34],3.34 µM
same,GI50,[35],> 100 µM
same,TGI,[35],> 100 µM
same,GI50,[36],1.7 µM
same,TGI,[36],3.13 µM
same,GI50,[37],2.01 µM
same,TGI,[37],6.02 µM
same,GI50,[38],1.55 µM
same,TGI,[38],4.59 µM
same,GI50,[39],> 100 µM
same,TGI,[39],> 100 µM
same,GI50,[40],1.61 µM
same,TGI,[40],3.06 µM
same,GI50,[41],6.99 µM
same,TGI,[41],22.2 µM
same,GI50,[42],1.81 µM
same,TGI,[42],4.75 µM
same,GI50,[43],2.19 µM
same,TGI,[43],6.21 µM
same,GI50,[44],7.1 µM
same,TGI,[44],24.5 µM
same,GI50,[45],1.89 µM
same,TGI,[45],4.52 µM
same,GI50,[46],1.94 µM
same,TGI,[46],3.77 µM
same,GI50,[47],2.25 µM
same,TGI,[47],8.23 µM
same,GI50,[48],1.79 µM
same,TGI,[48],4.35 µM
same,GI50,[49],1.98 µM
same,TGI,[49],5.79 µM
same,GI50,[50],1.97 µM
same,TGI,[50],4.43 µM
same,GI50,[51],1.76 µM
same,TGI,[51],3.37 µM
same,GI50,[52],1.75 µM
same,TGI,[52],4.64 µM
same,GI50,[53],3.71 µM
same,TGI,[53],16 µM
CC1(C)C(=O)N(O)C(C)(C)N1N=O,TGI,[1],> 10 µM
same,TGI,[2],> 10 µM
same,TGI,[3],> 10 µM
same,TGI,[5],> 10 µM
same,TGI,[6],> 10 µM
same,TGI,[54],> 10 µM
same,TGI,[7],> 10 µM
same,TGI,[55],> 10 µM
same,TGI,[8],> 10 µM
same,TGI,[9],> 10 µM
same,TGI,[10],> 10 µM
same,TGI,[11],> 10 µM
same,TGI,[12],> 10 µM
same,TGI,[13],> 10 µM
same,TGI,[56],> 10 µM
same,TGI,[16],> 10 µM
same,TGI,[17],> 10 µM
same,TGI,[18],> 10 µM
same,TGI,[19],> 10 µM
same,TGI,[20],> 10 µM
same,TGI,[21],> 10 µM
same,TGI,[22],> 10 µM
same,TGI,[23],> 10 µM
same,TGI,[25],> 10 µM
same,TGI,[26],> 10 µM
same,TGI,[27],> 10 µM
same,TGI,[28],> 10 µM
same,TGI,[29],> 10 µM
same,TGI,[30],> 10 µM
same,TGI,[31],> 10 µM
same,TGI,[32],> 10 µM
same,TGI,[35],> 10 µM
same,TGI,[36],> 10 µM
same,TGI,[37],> 10 µM
same,TGI,[38],> 10 µM
same,TGI,[39],> 10 µM
same,TGI,[57],> 10 µM
same,TGI,[42],> 10 µM
same,TGI,[43],> 10 µM
same,TGI,[44],> 10 µM
same,TGI,[46],> 10 µM
same,TGI,[58],> 10 µM
same,TGI,[47],> 10 µM
same,TGI,[48],> 10 µM
same,TGI,[49],> 10 µM
same,TGI,[50],> 10 µM
same,TGI,[51],> 10 µM
same,TGI,[53],> 10 µM
